One data set relates to BT 459. Briefly: Sequential treatment, cell viability by MTS assay. It counts as cell-based. As to conditions: Homo sapiens, dox alone, read-out: IC50 (Dox ng/mL). The procedure: The efficacy of sequential treatment was tested in the following human breast cancer cell lines: MCF-7/Adr (drug resistant), MCF-7, MDAMB 231 and BT-459. Cells were seeded at 3000 cells per well/0.1 mL in 96-well plates (Microtest Becton Dickinson Labware, Franklin Lakes, N.J.). 24 h post seeding, cells were pretreated with DAC solution/nanogel for 24 h or 48 h and washed with 1×-DPBS. 0.1 mL of media containing dox solution or nanogel was added and incubated in CO2 incubator for 48 h. Cell viability was determined at the end of incubation period using a standard MTS assay (CellTiter 96 Aqueous, Promega, Madison, Wis.). To each well was added 20 μL of reagent, the plates were incubated for 2 h at 37° C. in cell culture incubator, and color intensity was measured at 490 nm using a micro plate reader (Bio-Tek Instrument, Winooski, Vt.). The effect of drug on cell proliferation was calculated as percentage growth of cells with respect to their respective controls. […]
(§1) The interaction between DAC and dox was analyzed using the Calcusyn software program (Biosoft, Ferguson, Mo.) to determine whether the simultaneous/sequential treatment was additive or synergistic.
Data from cell viability assay (MTS) was expressed as the fraction of cells killed by individual drugs or by their combination in drug-treated compared with untreated cells. […]
Background: Tetrazolium assays rely on reduction of a dye to a coloured formazan, in cell work by metabolically active cells.

For data set [1], the system named is MCF-7/Adr cells. The data set is described as follows: Cellular uptake of dox. The class given is cell-based, human. As to conditions: dox alone treated MCF-7/Adr cells. The procedure: Drug resistant breast cancer cells were seeded in 24 well plates (1.2×10^6 cells/well). Post 48 h seeding, cells were pre-treated with DAC (50 ng/mL; 24 h); and then incubated with fixed concentration of dox (1 μg/mL) for indicated time points. Post drug incubation cell lysates in RIPA buffer was collected and lyophilized. Dox was extracted from lyophilized cell lysates using methanol as the solvent and analyzed by HPLC.

Another data set relates to dox sensitive cell lines. The data set is described as follows: Dox cell viability by MTS assay, sensitive cell lines. As to conditions: Homo sapiens; range over sensitive cell lines. It counts as cell-based.
The test system of a further data set is MCF-7/Adr. Briefly: Sequential/simultaneous treatment, cell viability by MTS assay. The class given is cell-based, human. As to conditions: for IC50: Homo sapiens, NCI/ADR-RES. The procedure: The efficacy of sequential treatment was tested in the following human breast cancer cell lines: MCF-7/Adr (drug resistant), MCF-7, MDAMB 231 and BT-459. Cells were seeded at 3000 cells per well/0.1 mL in 96-well plates (Microtest Becton Dickinson Labware, Franklin Lakes, N.J.). 24 h post seeding, cells were pretreated with DAC solution/nanogel for 24 h or 48 h and washed with 1×-DPBS. 0.1 mL of media containing dox solution or nanogel was added and incubated in CO2 incubator for 48 h. Cell viability was determined at the end of incubation period using a standard MTS assay (CellTiter 96 Aqueous, Promega, Madison, Wis.). To each well was added 20 μL of reagent, the plates were incubated for 2 h at 37° C. in cell culture incubator, and color intensity was measured at 490 nm using a micro plate reader (Bio-Tek Instrument, Winooski, Vt.). The effect of drug on cell proliferation was calculated as percentage growth of cells with respect to their respective controls. For simultaneous treatment DAC solution or nanogel, and dox solution or nanogel were added together to cells, and the above mentioned protocol was followed.
as §1
Data from cell viability assay (MTS) was expressed as the fraction of cells killed by individual drugs or by their combination in drug-treated compared with untreated cells. This program is based upon Chou-Talalay method. It calculates combination index (CI) of drugs. From the CI values, synergistic action of drugs can be analysed. The CI equal to 1, indicates the additive effect and CI<1 and CI>1, indicates synergistic and antagonistic activity respectively.

The test system of data set [2] is MCF-7/Adr cells. Briefly: Cell cycle analysis by flow cytometry. The class given is cell-based, human. As to conditions: DAC 50 ng/mL, dox 1 ng/mL, 48 h and 72 h, vs DAC alone or untreated. The procedure: (§2) Subconfluent cells were left untreated or treated with DAC (50 and 100 ng/mL) and dox (1 ng/mL) alone or in combination (sequential treatment) for 4-96 h. Cells were then trypsinized and then centrifuged at 1,300 rpm for 3 min at 4° C. Cell pellet was washed twice with ice cold 1X DPBS (pH 7.4) and resuspended in propidium iodide-(PI) solution (12.5 mg PI, 250 mg Sodium-Citrate and 250 μL Triton X-100 in 250 mL of water). Cells were then incubated in ice bucket, kept in cold room for 2 h, and DNA content was determined by flow cytometry using a FACScan flow cytometer (Becton Dickinson, San Jose, Calif.).

Another data set relates to MCF-7 cells. The data set is described as follows: Cell cycle analysis by flow cytometry. It counts as cell-based, human. As to conditions: DAC 50 ng/mL, dox 1 ng/mL, 48 h and 72 h, vs DAC alone or untreated. On the procedure:
as §2

The conditions of data set [3]: rat model; cited from earlier work.

≈ marks a conversion by molar mass, not a printed value. Where two headings read alike, the source gives them in different places. Bounds are passed on as bounds.

Description for dox sensitive cell lines: Cells were seeded at 3000 cells per well/0.1 mL in 96-well plates (Microtest Becton Dickinson Labware, Franklin Lakes, N.J.). […] Cell viability was determined at the end of incubation period using a standard MTS assay (CellTiter 96 Aqueous, Promega, Madison, Wis.). To each well was added 20 μL of reagent, the plates were incubated for 2 h at 37° C. in cell culture incubator, and color intensity was measured at 490 nm using a micro plate reader (Bio-Tek Instrument, Winooski, Vt.). The effect of drug on cell proliferation was calculated as percentage growth of cells with respect to their respective controls. For simultaneous treatment DAC solution or nanogel, and dox solution or nanogel were added together to cells, and the above mentioned protocol was followed.

For the compound `COc1cccc2c1C(=O)c1c(O)c3c(c(O)c1C2=O)C[C@@](O)(C(=O)CO)C[C@@H]3O[C@H]1C[C@H](N)[C@H](O)[C@H](C)O1` [Dox, doxorubicin], the IC50 in the data set on BT 459 was 102 ± 4.7 ng/mL; in the data set with dox sensitive cell lines, 0.019 to 0.102 mg/L (≈ 0.035 to 0.188 µM); in the data set on MCF-7/Adr (dox alone, mean ± s.e.m., three experiments, read-out: IC50 (Dox ng/mL)), 7380 ng/mL; in the data set on MCF-7/Adr (pretreated with DAC 24 h, then dox 48 h, read-out: IC50 (Sequential - Deci + Dox ng/mL)) it was ≤ 1 ng/mL. The “Incubation time after which drug concentration reached plateau” value with MCF-7/Adr cells [1] was found to be 1 h. For the same compound, the “IC50 (Dox ng/mL)” value in the data set with MCF-7/Adr (dox alone, mean ± s.e.m., three experiments) was 7385.2 ± 698 ng/mL. For the same compound, the G2/M arrest entry in the data set on MCF-7/Adr cells [2] and with MCF-7 cells was “no difference” in each case.
As for `Nc1ncn([C@@H]2O[C@H](CO)[C@@H](O)[C@H]2O)c(=O)n1` [5-azacytidine], the Carcinogenicity entry in data set [3] is on record as “carcinogenic”.

The record behind these values is US10729659B2, “Nanogel-mediated drug delivery” (The Cleveland Clinic Foundation, priority 2012, dated 2020).
